Assay: xn = mol fraction of the nth substance listed
Conditions: 100 kPa, Liquid; for electrical conductivity: Alternating current cell with electrodes; for mass density: Vibrating tube method; for viscosity: Capillary tube (Ostwald / Ubbelohde) method

CCCC[N+]1(C)CCCC1.N#CN=C=[N-] [1-butyl-1-methylpyrrolidinium dicyanamide] + O=C1CCCO1
Conditions | electrical conductivity [S/m]
303.15 K, Frequency=0.00857143 MHz, x1 = 0.2493 | 2.86
303.15 K, Frequency=0.00857143 MHz, x1 = 0.3029 | 2.79
303.15 K, Frequency=0.00857143 MHz, x1 = 0.3845 | 2.62
303.15 K, Frequency=0.00857143 MHz, x1 = 0.4985 | 2.33
303.15 K, Frequency=0.00857143 MHz, x1 = 0.6954 | 1.913
303.15 K, Frequency=0.00857143 MHz, x1 = 0.9013 | 1.609
303.15 K, Frequency=0.00857143 MHz, x1 = 1 | 1.527
303.15 K, Frequency=0.00892857 MHz, x1 = 0.0463 | 1.58
303.15 K, Frequency=0.00892857 MHz, x1 = 0.0987 | 2.38
303.15 K, Frequency=0.00892857 MHz, x1 = 0.1449 | 2.71
303.15 K, Frequency=0.00892857 MHz, x1 = 0.1859 | 2.902
303.15 K, Frequency=0.00892857 MHz, x1 = 0.2493 | 2.86
303.15 K, Frequency=0.00892857 MHz, x1 = 0.3029 | 2.79
303.15 K, Frequency=0.00892857 MHz, x1 = 0.3845 | 2.62
303.15 K, Frequency=0.00892857 MHz, x1 = 0.4985 | 2.33
303.15 K, Frequency=0.00892857 MHz, x1 = 0.6954 | 1.913
303.15 K, Frequency=0.00892857 MHz, x1 = 0.9013 | 1.609
303.15 K, Frequency=0.00892857 MHz, x1 = 1 | 1.527
303.15 K, Frequency=0.00961538 MHz, x1 = 0.0463 | 1.58
303.15 K, Frequency=0.00961538 MHz, x1 = 0.0987 | 2.38
303.15 K, Frequency=0.00961538 MHz, x1 = 0.1449 | 2.71
303.15 K, Frequency=0.00961538 MHz, x1 = 0.1859 | 2.903
303.15 K, Frequency=0.00961538 MHz, x1 = 0.2493 | 2.86
303.15 K, Frequency=0.00961538 MHz, x1 = 0.3029 | 2.79
303.15 K, Frequency=0.00961538 MHz, x1 = 0.3845 | 2.62
303.15 K, Frequency=0.00961538 MHz, x1 = 0.4985 | 2.33
303.15 K, Frequency=0.00961538 MHz, x1 = 0.6954 | 1.913
303.15 K, Frequency=0.00961538 MHz, x1 = 0.9013 | 1.609
303.15 K, Frequency=0.00961538 MHz, x1 = 1 | 1.527
303.15 K, Frequency=0.01 MHz, x1 = 0.0463 | 1.58
303.15 K, Frequency=0.01 MHz, x1 = 0.0987 | 2.38
303.15 K, Frequency=0.01 MHz, x1 = 0.1449 | 2.71
303.15 K, Frequency=0.01 MHz, x1 = 0.1859 | 2.903
303.15 K, Frequency=0.01 MHz, x1 = 0.2493 | 2.86
303.15 K, Frequency=0.01 MHz, x1 = 0.3029 | 2.79
303.15 K, Frequency=0.01 MHz, x1 = 0.3845 | 2.62
303.15 K, Frequency=0.01 MHz, x1 = 0.4985 | 2.33
303.15 K, Frequency=0.01 MHz, x1 = 0.6954 | 1.913
303.15 K, Frequency=0.01 MHz, x1 = 0.9013 | 1.609
303.15 K, Frequency=0.01 MHz, x1 = 1 | 1.527
313.15 K, Frequency=0.0005 MHz, x1 = 0.0463 | 1.78
313.15 K, Frequency=0.0005 MHz, x1 = 0.0987 | 2.71
313.15 K, Frequency=0.0005 MHz, x1 = 0.1449 | 3.13
313.15 K, Frequency=0.0005 MHz, x1 = 0.1859 | 3.34
313.15 K, Frequency=0.0005 MHz, x1 = 0.2493 | 3.35
313.15 K, Frequency=0.0005 MHz, x1 = 0.3029 | 3.302
313.15 K, Frequency=0.0005 MHz, x1 = 0.3845 | 3.15
313.15 K, Frequency=0.0005 MHz, x1 = 0.4985 | 2.87
313.15 K, Frequency=0.0005 MHz, x1 = 0.6954 | 2.421
313.15 K, Frequency=0.0005 MHz, x1 = 0.9013 | 2.08
313.15 K, Frequency=0.0005 MHz, x1 = 1 | 1.99
313.15 K, Frequency=0.001 MHz, x1 = 0.0463 | 1.78
313.15 K, Frequency=0.001 MHz, x1 = 0.0987 | 2.71
313.15 K, Frequency=0.001 MHz, x1 = 0.1449 | 3.13
313.15 K, Frequency=0.001 MHz, x1 = 0.1859 | 3.35
313.15 K, Frequency=0.001 MHz, x1 = 0.2493 | 3.36
313.15 K, Frequency=0.001 MHz, x1 = 0.3029 | 3.309
313.15 K, Frequency=0.001 MHz, x1 = 0.3845 | 3.15
313.15 K, Frequency=0.001 MHz, x1 = 0.4985 | 2.87
313.15 K, Frequency=0.001 MHz, x1 = 0.6954 | 2.422
313.15 K, Frequency=0.001 MHz, x1 = 0.9013 | 2.08
313.15 K, Frequency=0.001 MHz, x1 = 1 | 2
313.15 K, Frequency=0.0015 MHz, x1 = 0.0463 | 1.79
313.15 K, Frequency=0.0015 MHz, x1 = 0.0987 | 2.72
313.15 K, Frequency=0.0015 MHz, x1 = 0.1449 | 3.13
313.15 K, Frequency=0.0015 MHz, x1 = 0.1859 | 3.35
313.15 K, Frequency=0.0015 MHz, x1 = 0.2493 | 3.36
313.15 K, Frequency=0.0015 MHz, x1 = 0.3029 | 3.312
313.15 K, Frequency=0.0015 MHz, x1 = 0.3845 | 3.16
313.15 K, Frequency=0.0015 MHz, x1 = 0.4985 | 2.87
313.15 K, Frequency=0.0015 MHz, x1 = 0.6954 | 2.424
313.15 K, Frequency=0.0015 MHz, x1 = 0.9013 | 2.09
313.15 K, Frequency=0.0015 MHz, x1 = 1 | 2
313.15 K, Frequency=0.002 MHz, x1 = 0.0463 | 1.79
313.15 K, Frequency=0.002 MHz, x1 = 0.0987 | 2.72
313.15 K, Frequency=0.002 MHz, x1 = 0.1449 | 3.13
313.15 K, Frequency=0.002 MHz, x1 = 0.1859 | 3.36
313.15 K, Frequency=0.002 MHz, x1 = 0.2493 | 3.36
313.15 K, Frequency=0.002 MHz, x1 = 0.3029 | 3.314
313.15 K, Frequency=0.002 MHz, x1 = 0.3845 | 3.16
313.15 K, Frequency=0.002 MHz, x1 = 0.4985 | 2.87
313.15 K, Frequency=0.002 MHz, x1 = 0.6954 | 2.424
313.15 K, Frequency=0.002 MHz, x1 = 0.9013 | 2.09

Conditions | electrical conductivity, 313.15 K [S/m] | mass density, 303.15 K [kg/m3] | viscosity, 313.15 K [mPa·s]
x1 = 0.0463 | 1.79 | – | –
x1 = 0.0987 | 2.73 | 1099.02 | 2.18
x1 = 0.1449 | 3.13 | – | –
x1 = 0.1859 | 3.37 | 1083.47 | 3.04
x1 = 0.2493 | 3.36 | – | –
x1 = 0.3029 | 3.319 | 1066.18 | 4.52
x1 = 0.3845 | 3.16 | – | –
x1 = 0.4985 | 2.88 | 1044.28 | 7.85
x1 = 0.6954 | 2.426 | 1028.17 | 12.31
x1 = 0.9013 | 2.09 | 1015.57 | 18.01
x1 = 1 | 2 | 1010.64 | 21.07

Source: the NIST ThermoML archive (doi:10.1016/j.jct.2015.08.014)
